Measured values as given in patent publication US9617256B2 (priority 2007, dated 2017).
Values after ≈ are worked out from the molar mass of the structure shown. Where two headings read alike, the source gives them in different places.

What was measured:
AECO001 (ATCC25922) = test: MIC broth microdilution, AECO001; type: cell-based, E. coli; settings: for MIC: Escherichia coli
Experimental: (§1) Bacterial isolates were cultivated from −70° C. frozen stocks by overnight passages at 35° C. in ambient air on Mueller-Hinton agar (Beckton Dickinson, Franklin Lakes, N.J.). Clinical isolates tested were obtained from various geographically diverse hospitals in the US and abroad (Focus Diagnostics, Herndon, Va. and JMI, North Liberty, Iowa). Quality control strains were from the American Type Culture Collection (ATCC; Rockville, Md.). Additional primary panel strains were generated using standard molecular biology techniques.
(§2) Minimum Inhibitory Concentrations (MICs) were determined by the broth microdilution method in accordance with the Clinical and Laboratory Standards Institute (CLSI) guidelines. In brief, organism suspensions were adjusted to a 0.5 McFarland standard to yield a final inoculum between 3×10^5 and 7×10^5 colony-forming units (CFU)/mL. Drug dilutions and inocula were made in sterile, cation adjusted Mueller-Hinton Broth (Beckton Dickinson). An inoculum volume of 100 μL was added to wells containing 100 μL of broth with 2-fold serial dilutions of drug. All inoculated microdilution trays were incubated in ambient air at 35° C. for 18-24 hours. […] Performance of the assay was monitored by the use of laboratory quality-control strains and levofloxacin, a compound with a defined MIC spectrum, in accordance with CLSI guidelines.
(§3) *AECO001 is ATCC25922, AECO063 is ATCC25922 bearing an acrAB mutation, APAE001 is ATCC27853, APAE006 is a strain of P. aeruginosa in which all efflux pumps are inactivated, APAE006+PMBN indicates MICs with the indicated strain in the presence of 8 micrograms per milliliter of polymyxin B nonapeptide, AABA1060 is a clinical isolate of Acinetobacter baumannii, ASAU001 is a laboratory strain of S. aureus (ATCC29213).

[1] = system: APAE006 (strain of P. aeruginosa in which all efflux pumps are inactivated); test: microbe, parasite or virus in culture; type: cell-based; settings: Pseudomonas aeruginosa, read-out: MIC APAE006, APAE006, all efflux pumps inactivated
Experimental: as §1, §2, §3

[2] = system: AECO063 (ATCC25922 bearing an acrAB mutation); test: microbe, parasite or virus in culture; type: cell-based, E. coli; settings: Escherichia coli, ATCC25922, read-out: MIC AECO063
Experimental: as §1, §2, §3

APAE001 (ATCC27853) = test: MIC broth microdilution, APAE001; type: cell-based, P. aeruginosa; settings: Pseudomonas aeruginosa, ATCC27853, read-out: MIC APAE001, APAE001 (ATCC27853)
Experimental: as §1, §2, §3

[3] = system: ASAU001 (laboratory strain of S. aureus, ATCC29213); test: MIC broth microdilution, ASAU001; type: cell-based; settings: Staphylococcus aureus, ATCC29213, read-out: MIC ASAU001
Experimental: as §1, §2, §3

[4] = system: APAE006 in the presence of 8 micrograms per milliliter of polymyxin B nonapeptide; type: cell-based, P. aeruginosa; settings: APAE006 with 8 micrograms per milliliter polymyxin B nonapeptide
Experimental: as §1, §2, §3

[5] = system: AABA1060 (clinical isolate of Acinetobacter baumannii); test: MIC broth microdilution, AABA1060; type: cell-based; settings: Acinetobacter baumannii, read-out: MIC AABA1060
Experimental: as §1, §2, §3

[6] = ATCC25922, read-out: MIC AECO001
[7] = ATCC25922, read-out: MIC AECO001 HSA AGP

| SMILES | MIC (AECO001 (ATCC25922); [6]) | MIC (AECO001 (ATCC25922); [7]) | MIC [1] | MIC [2] | MIC (APAE001 (ATCC27853)) | MIC [3] | MIC APAE006 + PMBN [4] | MIC [5] | Ratio of MICs on AECO001 [Cpd (A = —CHCH3NH2)/Cpd (A = —C(CH3)2NH2)] (AECO001 (ATCC25922); MIC of paired compound with A = —CHCH3NH2 divided by MIC of compound with A = —C(CH3)2NH2, n=2 data, pairs identical except for the A moiety) |
| --- | --- | --- | --- | --- | --- | --- | --- | --- | --- |
| Cn1cnc(C#CC#Cc2ccc(C(=O)N[C@H](C(=O)NO)C(C)(C)N)cc2)c1 [Example 89-5] | 2 to 16 µg/mL (≈ 5.27 to 42.2 µM) | 2 to 16 µg/mL (≈ 5.27 to 42.2 µM) | < 2 µg/mL | < 2 µg/mL | < 2 µg/mL | 16 to 64 µg/mL (≈ 42.2 to 169 µM) | A (MIC's of 2.0 μg/mL or less = A) | 2 to 16 µg/mL (≈ 5.27 to 42.2 µM) | – |
| CC(C)(N)[C@H](NC(=O)c1ccc(C#CC#Cc2ccc(O)cc2)cc1)C(=O)NO [Example 83-1, N—((S)-2-Amino-1-hydroxycarbamoyl-2-methyl-propyl)-4-[4-(4-hydroxy-phenyl)-buta-1,3-diynyl]-benzamide] | < 2 µg/mL | 2 to 16 µg/mL (≈ 5.11 to 40.9 µM) | < 2 µg/mL | < 2 µg/mL | < 2 µg/mL | 16 to 64 µg/mL (≈ 40.9 to 164 µM) | A (MIC's of 2.0 μg/mL or less = A) | < 2 µg/mL | – |
| C[C@@H](N)[C@H](NC(=O)c1ccc(C#CC(O)c2ccccc2)cc1)C(=O)NO (some centres unmarked) [Example 137-20] | 16 to 64 µg/mL (≈ 43.5 to 174 µM) | 16 to 64 µg/mL (≈ 43.5 to 174 µM) | 2 to 16 µg/mL (≈ 5.44 to 43.5 µM) | 16 to 64 µg/mL (≈ 43.5 to 174 µM) | 16 to 64 µg/mL (≈ 43.5 to 174 µM) | 16 to 64 µg/mL (≈ 43.5 to 174 µM) | A (MIC's of 2.0 μg/mL or less = A) | 2 to 16 µg/mL (≈ 5.44 to 43.5 µM) | – |
| CC(C)(O)[C@H](NC(=O)c1ccc(C#CC#Cc2cccc(F)c2)cc1)C(=O)NO [Example 82-24] | < 2 µg/mL | 2 to 16 µg/mL (≈ 5.07 to 40.6 µM) | < 2 µg/mL | < 2 µg/mL | 2 to 16 µg/mL (≈ 5.07 to 40.6 µM) | 2 to 16 µg/mL (≈ 5.07 to 40.6 µM) | A (MIC's of 2.0 μg/mL or less = A) | < 2 µg/mL | – |
| CC(C)C#CC#Cc1ccc(C(=O)NC(C(=O)NO)[C@@H](C)N)cc1 (some centres unmarked) [Example 91-13] | < 2 µg/mL | 2 to 16 µg/mL (≈ 6.11 to 48.9 µM) | < 2 µg/mL | < 2 µg/mL | < 2 µg/mL | 2 to 16 µg/mL (≈ 6.11 to 48.9 µM) | A (MIC's of 2.0 μg/mL or less = A) | 2 to 16 µg/mL (≈ 6.11 to 48.9 µM) | – |
| CC(C)(N)[C@H](NC(=O)c1ccc(C#C/C=C/c2ccccc2)cc1)C(=O)NO [Example 104-5] | < 2 µg/mL | < 2 µg/mL | < 2 µg/mL | < 2 µg/mL | 2 to 16 µg/mL (≈ 5.3 to 42.4 µM) | 2 to 16 µg/mL (≈ 5.3 to 42.4 µM) | A (MIC's of 2.0 μg/mL or less = A) | < 2 µg/mL | – |
| C[C@@H](O)[C@H](NC(=O)c1ccc(C#Cc2ccncc2)cc1)C(=O)NO [Example 133-13] | 16 to 64 µg/mL (≈ 47.1 to 189 µM) | 16 to 64 µg/mL (≈ 47.1 to 189 µM) | < 2 µg/mL | 2 to 16 µg/mL (≈ 5.89 to 47.1 µM) | 16 to 64 µg/mL (≈ 47.1 to 189 µM) | 16 to 64 µg/mL (≈ 47.1 to 189 µM) | A (MIC's of 2.0 μg/mL or less = A) | 16 to 64 µg/mL (≈ 47.1 to 189 µM) | – |
| Cn1cc(C#CC#Cc2ccc(C(=O)N[C@H](C(=O)NO)C(C)(C)N)cc2)cn1 [Example 89-2] | < 2 µg/mL | 2 to 16 µg/mL (≈ 5.27 to 42.2 µM) | < 2 µg/mL | < 2 µg/mL | < 2 µg/mL | 16 to 64 µg/mL (≈ 42.2 to 169 µM) | A (MIC's of 2.0 μg/mL or less = A) | < 2 µg/mL | 1.6 |
| C[C@@H](N)[C@H](NC(=O)c1ccc(C#CC#Cc2ccc(CNCC(F)F)cc2)cc1)C(=O)NO [Example 86-1, N-((1S,2R)-2-Amino-1-hydroxycarbamoyl-propyl)-4-(4-{4-[(2,2-difluoro-ethylamino)-methyl]-phenyl}-buta-1,3-diynyl)-benzamide] | < 2 µg/mL | 2 to 16 µg/mL (≈ 4.4 to 35.2 µM) | < 2 µg/mL | < 2 µg/mL | < 2 µg/mL | 16 to 64 µg/mL (≈ 35.2 to 141 µM) | A (MIC's of 2.0 μg/mL or less = A) | 2 to 16 µg/mL (≈ 4.4 to 35.2 µM) | – |
| CC(C)(N)C(NC(=O)c1ccc(C#CC#CC2CC2)cc1)C(=O)NO (centres unmarked) [Example 91-10] | < 2 µg/mL | < 2 µg/mL | < 2 µg/mL | < 2 µg/mL | < 2 µg/mL | 16 to 64 µg/mL (≈ 47.1 to 189 µM) | A (MIC's of 2.0 μg/mL or less = A) | < 2 µg/mL | – |
| CC(C)(O)[C@H](NC(=O)c1ccc(C#Cc2ccc(CNCC(F)F)cc2)cc1)C(=O)NO [Example 119-5] | < 2 µg/mL | < 2 µg/mL | < 2 µg/mL | < 2 µg/mL | < 2 µg/mL | 16 to 64 µg/mL (≈ 35.9 to 144 µM) | A (MIC's of 2.0 μg/mL or less = A) | < 2 µg/mL | – |
